In patent publication US10004701B2, “Methods and compositions for treating infection” (UNIVERSITY OF ROCHESTER, priority 2012, dated 2018) one finds fold induction data, which are given here for 6 compounds.

Structures can show the parent of a compound that is named as a salt. Where two headings read alike, the source gives them in different places.

Holding throughout (assay): AK assay 384-well format, Prestwick library screening
One test relates to E. faecium. Type of test: cell-based, Enterococcus faecium. The following applies: Enterococcus faecium, 3 h, 50 μM final drug concentration.
The test system of test [1] is S. aureus strain USA300-0114. The format is cell-based, Staphylococcus aureus. Particulars: Staphylococcus aureus, USA300, 3 h, 50 μM final drug concentration.
For a further test, the system named is K. pneumoniae. The format is cell-based, Klebsiella pneumoniae. The following applies: Klebsiella pneumoniae, 3 h, 50 μM final drug concentration.
The subject of test [2] is A. baumannii strain 98-37-09. Type of test: cell-based, Acinetobacter baumannii. Particulars: Acinetobacter baumannii, 983709, 3 h, 50 μM final drug concentration.
Another test relates to P. aeruginosa. Type of test: cell-based, Pseudomonas aeruginosa. The following applies: Pseudomonas aeruginosa, 3 h, 50 μM final drug concentration.
For another test, the system named is E. cloacae. Type of test: cell-based, Enterobacter cloacae. The following applies: Enterobacter cloacae, 3 h, 50 μM final drug concentration.
A further test deals with E. coli. Type of test: cell-based, Escherichia coli. Particulars: Escherichia coli, 3 h, 50 μM final drug concentration.

Turning to `O=C(OCC(O)CO)c1ccccc1Nc1ccnc2cc(Cl)ccc12` (stereo not drawn) [Glafenine hydrochloride], the fold induction at 50 µM with E. faecium (planktonic E. faecium, 384-well, […], read-out: AK-based Prestwick Library Screening Results: E. faecium (increase in extracellular AK activity)) was 1.1; in test [1] (planktonic S. aureus, 384-well, […], read-out: AK-based Prestwick Library Screening Results: S. aureus (increase in extracellular AK activity)), 1.1; in the test on K. pneumoniae (planktonic K. pneumoniae, 384-well, […], read-out: AK-based Prestwick Library Screening Results: K. pneumoniae (increase in extracellular AK activity)) it was 1; in test [2] (planktonic A. baumannii, 384-well, […], read-out: AK-based Prestwick Library Screening Results: A. baumannii (increase in extracellular AK activity)), 1.1; in the test on P. aeruginosa (planktonic P. aeruginosa, 384-well, […], read-out: AK-based Prestwick Library Screening Results: P. aeruginosa (increase in extracellular AK activity)), 1.2; in the test with E. cloacae (planktonic E. cloacae, 384-well, […], read-out: AK-based Prestwick Library Screening Results: E. cloacae (increase in extracellular AK activity)), 1.5. Further, in the test with E. coli (planktonic E. coli, 384-well, […], read-out: AK-based Prestwick Library Screening Results: E. coli (increase in extracellular AK activity)), the fold induction at 50 µM worked out at 1.2.
Turning to `CC(=O)SCC(Cc1ccccc1)C(=O)NCC(=O)OCc1ccccc1` (stereo not drawn) [Racecadotril], the fold induction at 50 µM with E. faecium (planktonic, cutoff for positive 3-fold increase, read-out: AK-based Prestwick Library Screening Results, E. faecium (fold increase in extracellular AK activity)) came to 1; in test [1] (planktonic, cutoff for positive 3-fold increase, read-out: AK-based Prestwick Library Screening Results, S. aureus (fold increase in extracellular AK activity)) it was 1.9; in the test with K. pneumoniae (planktonic, cutoff for positive 3-fold increase, read-out: AK-based Prestwick Library Screening Results, K. pneumoniae (fold increase in extracellular AK activity)), 1.1; in test [2] (planktonic, cutoff for positive 3-fold increase, read-out: AK-based Prestwick Library Screening Results, A. baumannii (fold increase in extracellular AK activity)) it was 1.3; with P. aeruginosa (planktonic, cutoff for positive 3-fold increase, read-out: AK-based Prestwick Library Screening Results, P. aeruginosa (fold increase in extracellular AK activity)), 1.2; in the test with E. cloacae (planktonic, cutoff for positive 3-fold increase, read-out: AK-based Prestwick Library Screening Results, E. cloacae (fold increase in extracellular AK activity)) it was 1.5. The fold induction at 50 µM in the test with E. coli (planktonic, cutoff for positive 3-fold increase, read-out: AK-based Prestwick Library Screening Results, E. coli (fold increase in extracellular AK activity)) was 1.2.
`COc1ccc([C@@H]2Sc3ccccc3N(CCN(C)C)C(=O)[C@@H]2OC(C)=O)cc1` [Diltiazem hydrochloride]: the fold induction at 50 µM amounted to 0.9 with E. faecium (planktonic E. faecium, 384-well, cutoff for positive-scoring molecules 3-fold increase, read-out: AK-based Prestwick Library Screening Results: E. faecium (increase in extracellular AK activity)); 0.8 in test [1] (planktonic S. aureus, 384-well, cutoff for positive-scoring molecules 3-fold increase, read-out: AK-based Prestwick Library Screening Results: S. aureus (increase in extracellular AK activity)); 1 with K. pneumoniae (planktonic K. pneumoniae, 384-well, cutoff for positive-scoring molecules 3-fold increase, read-out: AK-based Prestwick Library Screening Results: K. pneumoniae (increase in extracellular AK activity)); 1 in test [2] (planktonic A. baumannii, 384-well, cutoff for positive-scoring molecules 3-fold increase, read-out: AK-based Prestwick Library Screening Results: A. baumannii (increase in extracellular AK activity)); 0.9 with P. aeruginosa (planktonic P. aeruginosa, 384-well, cutoff for positive-scoring molecules 3-fold increase, read-out: AK-based Prestwick Library Screening Results: P. aeruginosa (increase in extracellular AK activity)); 1.5 in the test on E. cloacae (planktonic E. cloacae, 384-well, cutoff for positive-scoring molecules 3-fold increase, read-out: AK-based Prestwick Library Screening Results: E. cloacae (increase in extracellular AK activity)). In addition, the fold induction at 50 µM in the test with E. coli (planktonic E. coli, 384-well, cutoff for positive-scoring molecules 3-fold increase, read-out: AK-based Prestwick Library Screening Results: E. coli (increase in extracellular AK activity)) was found to be 1.
On to `CC[C@H]1OC(=O)[C@H](C)[C@@H](O[C@H]2C[C@@](C)(OC)[C@@H](O)[C@H](C)O2)[C@H](C)[C@@H](O[C@@H]2O[C@H](C)C[C@H](N(C)C)[C@H]2O)[C@](C)(O)C[C@@H](C)/C(=N\OCOCCOC)[C@H](C)[C@@H](O)[C@]1(C)O` [Roxithromycin], for which the fold induction at 50 µM in the test on E. faecium (cutoff for positive-scoring molecules 3-fold increase, read-out: AK-based Prestwick Library Screening Results, E. faecium (fold increase in extracellular AK activity)) stood at 1.4; in test [1] (cutoff for positive-scoring molecules 3-fold increase, read-out: AK-based Prestwick Library Screening Results, S. aureus (fold increase in extracellular AK activity)), 2.8; in the test on K. pneumoniae (cutoff for positive-scoring molecules 3-fold increase, read-out: AK-based Prestwick Library Screening Results, K. pneumoniae (fold increase in extracellular AK activity)), 1.1; in test [2] (cutoff for positive-scoring molecules 3-fold increase, read-out: AK-based Prestwick Library Screening Results, A. baumannii (fold increase in extracellular AK activity)), 1; in the test with P. aeruginosa (cutoff for positive-scoring molecules 3-fold increase, read-out: AK-based Prestwick Library Screening Results, P. aeruginosa (fold increase in extracellular AK activity)), 0.9; with E. cloacae (cutoff for positive-scoring molecules 3-fold increase, read-out: AK-based Prestwick Library Screening Results, E. cloacae (fold increase in extracellular AK activity)), 1.5. Moreover, the fold induction at 50 µM in the test on E. coli (cutoff for positive-scoring molecules 3-fold increase, read-out: AK-based Prestwick Library Screening Results, E. coli (fold increase in extracellular AK activity)) is 0.9.
For the compound `N=C(N)NC(=O)c1nc(Cl)c(N)nc1N` [Amiloride hydrochloride dihydrate], the fold induction at 50 µM in the test with E. faecium (384-well format, cutoff for positive-scoring molecules 3-fold increase, read-out: AK-based Prestwick Library Screening Results, E. faecium (increase in extracellular AK activity)) came out at 0.8; in test [1] (384-well format, cutoff for positive-scoring molecules 3-fold increase, read-out: AK-based Prestwick Library Screening Results, S. aureus (increase in extracellular AK activity)), 0.4; in the test on K. pneumoniae (384-well format, cutoff for positive-scoring molecules 3-fold increase, read-out: AK-based Prestwick Library Screening Results, K. pneumoniae (increase in extracellular AK activity)), 0.4; in test [2] (384-well format, cutoff for positive-scoring molecules 3-fold increase, read-out: AK-based Prestwick Library Screening Results, A. baumannii (increase in extracellular AK activity)), 0.4; in the test on P. aeruginosa (384-well format, cutoff for positive-scoring molecules 3-fold increase, read-out: AK-based Prestwick Library Screening Results, P. aeruginosa (increase in extracellular AK activity)), 0.3; in the test on E. cloacae (384-well format, cutoff for positive-scoring molecules 3-fold increase, read-out: AK-based Prestwick Library Screening Results, E. cloacae (increase in extracellular AK activity)), 0.4. In addition, the fold induction at 50 µM in the test with E. coli (384-well format, cutoff for positive-scoring molecules 3-fold increase, read-out: AK-based Prestwick Library Screening Results, E. coli (increase in extracellular AK activity)) is 0.5.
As to `C=C(NC(=O)C(=C)NC(=O)c1csc(C2=N[C@@H]3c4csc(n4)[C@H]4NC(=O)c5csc(n5)[C@H]([C@](C)(O)[C@@H](C)O)NC(=O)[C@H]5CSC(=N5)/C(=C/C)NC(=O)[C@H]([C@@H](C)O)NC(=O)c5csc(n5)[C@]3(CC2)NC(=O)[C@H](C)NC(=O)C(=C)NC(=O)[C@H](C)NC(=O)[C@H]([C@@H](C)CC)N[C@@H]2C=Cc3c([C@H](C)O)cc(nc3[C@H]2O)C(=O)O[C@@H]4C)n1)C(N)=O` [Thiostrepton], the fold induction at 50 µM was 1 in the test with E. faecium (planktonic, […], read-out: AK-based Prestwick Library Screening Results, E. faecium (fold increase in extracellular AK activity)); 0.4 in test [1] (planktonic, […], read-out: AK-based Prestwick Library Screening Results, S. aureus (fold increase in extracellular AK activity)); 1 in the test with K. pneumoniae (planktonic, […], read-out: AK-based Prestwick Library Screening Results, K. pneumoniae (fold increase in extracellular AK activity)); 1.1 in test [2] (planktonic, […], read-out: AK-based Prestwick Library Screening Results, A. baumannii (fold increase in extracellular AK activity)); 0.9 with P. aeruginosa (planktonic, […], read-out: AK-based Prestwick Library Screening Results, P. aeruginosa (fold increase in extracellular AK activity)); 1.4 in the test on E. cloacae (planktonic, […], read-out: AK-based Prestwick Library Screening Results, E. cloacae (fold increase in extracellular AK activity)). For the same compound, the fold induction at 50 µM with E. coli (planktonic, […], read-out: AK-based Prestwick Library Screening Results, E. coli (fold increase in extracellular AK activity)) came to 1.3.
